Laboratory results as given in US20250204515A1, “Heparanase Inhibition for Graft Protection” (University of Pittsburgh - Of the Commonwealth System of …, priority 2022, published 2025).

Columns and labels:
[1] = system: HPSE1, MMP2, IL-6, IL-1β, TNF-α mRNA; IκB-α; experiment: Real-time RT-PCR and western blotting in rat lung tissue after 4 hours of EVLP
Procedure: Graft tissues collected after 4 hours of EVLP and 2 hours after reperfusion were examined for relative mRNA expression levels of interleukin (IL)-6, IL-1, tumor necrosis factor (TNF)-α, and glyceraldehyde-3-phosphate dehydrogenase (GAPDH). Gene expression levels were normalized to GAPDH mRNA levels.
Western blotting: Total isolated proteins were extracted/resolved by 10% SDS-PAGE followed by transfer to 0.2 μm nitrocellulose membranes (Bio-Rad Laboratories, Hercules, CA, USA). Membranes were blocked with 5% non-fat milk at room temperature for 2 hours and then incubated overnight at 4° C. with the following primary antibodies: inhibitor of KB-α (IκB-α; #9242, Cell Signaling Technology, Inc., Danvers, MA) and β-actin (#A1978, Millipore-Sigma). Membranes were then incubated with either goat anti-mouse IgG (H+L) (#31430, Thermo Fisher Scientific Inc.; 1:5000) or goat anti-rabbit IgG (H+L) (#31460, Thermo Fisher Scientific Inc.; 1:3000) horseradish peroxidase-conjugated polyclonal secondary antibodies at room temperature for 2 hours. Proteins were visualized using an enhanced chemiluminescence kit (Abcam), and protein bands were imaged and analyzed using Image Lab software (Version 6.0; Bio-Rad Laboratories, Inc., Hercules, CA). The intensities of protein bands were quantitated by Image J software (National Institutes of Health, Bethesda, MD).

[2] = system: heparanase (HPSE); experiment: In vitro β-D-glucuronidase activity assay (4-MUG substrate)
Procedure: In vitro β-D-glucuronidase activity assay Heparanase activity was measured via β-Glucuronidase activity assay using 4-methylumbelliferyl-β-D-glucuronide (4-MUG) substrate (Millipore-Sigma). As a source of enzymes, platelet rich plasma (PRP) obtained from rat whole blood or rat lung whole tissue lysate, was used. […] Fluorescence (λex 360 nm/λem 460 nm) was continuously measured for 60 minutes using a fluorescence microplate reader (BioTech Synergy HTX, Agilent Technologies, Santa Clara, CA).

In the case of heparin, the “IL-1β mRNA expression” value ([1]; lung tissue after 4-hours EVLP) is reported as “increased”, the “IL-6 mRNA expression” value ([1]; lung tissue after 4-hours EVLP) is reported as “increased” and the “TNF-α mRNA expression” value ([1]; lung tissue after 4-hours EVLP) is reported as “increased”. The pro-MMP2 gene expression ([1]; lung tissue after 4 hours of EVLP) was “further upregulated”, the “HPSE1 mRNA expression” value ([1]; lung tissue after 4 hours of EVLP, vs sham) was “not altered” and the “inhibition of HPSE in vitro, compared with SF4” value ([2]; in vitro data) was “not as effective as SF4”. The “β-D-glucuronidase activity, dose response” value ([2]; in vitro, FIG. 8) was “increased in a dose-dependent manner”.
